These are literature values, as cited in paper PMC3215888 (Cancer Chemotherapy and Pharmacology, 2011).

For the data set, the system named is Aurora kinase A mutation (T217D). Particulars: cited from earlier work.

As to `O=C(O)c1ccc(Nc2ncc3c(n2)-c2ccc(Cl)cc2C(c2c(F)cccc2F)=NC3)cc1` [MLN8054, reference compound], the “inhibition of Aurora kinase A T217D mutant” value was “impervious”.
